According to ChEMBL document CHEMBL5331105, “Newly Synthesized 3-Indolyl Furanoid Inhibits Matrix Metalloproteinase-9 Activity and Prevents Nonsteroidal Anti-inflammatory Drug-Induced Gastric Ulceration” (J Med Chem, 2023):
Active and inactive are the calls of the source. The calls are words filed in the database; no cut-off is given here.

What was measured:
Mus musculus [1] = assay: Antiulcer activity in indomethacin-induced Balb/c mouse model of gastric ulcer assessed as mean ulcer index at 12 mg/kg, po pre-administered with compound for 30 mins followed by indomethacin administration and measured after 4 hrs (reference value: 52.5 +/- 1.4); assay type: functional; conditions: time 4.5 hrs
Mus musculus [2] = assay: Antiulcer activity in indomethacin-induced Balb/c mouse model of gastric ulcer assessed as inhibition of ulceration at 12 mg/kg, po pre-administered with compound for 30 mins followed by indomethacin administration and measured after 4 hrs relative to control; assay type: functional; conditions: time 4.5 hrs
Mus musculus [3] = assay: Antiulcer activity in indomethacin-induced Balb/c mouse model of gastric ulcer assessed as inhibition of ulceration at 50 mg/kg, po pre-administered with compound for 30 mins followed by indomethacin administration and measured after 4 hrs relative to control; assay type: functional; conditions: time 4.5 hrs
Mus musculus [4] = assay: (§1) Antiulcer activity in indomethacin-induced Balb/c mouse model of gastric ulcer assessed as mean ulcer index at 50 mg/kg, po pre-administered with compound for 30 mins followed by indomethacin administration and measured after 4 hrs (reference value: 52.5 +/- 1.4); assay type: functional; conditions: time 4.5 hrs
Mus musculus [5] = assay: Antioxidant activity in indomethacin-induced Balb/c mouse model of gastric ulcer assessed as lipid peroxidation by measuring TBARS activity in stomach at 50 mg/kg, po pre-administered with compound for 30 mins followed by indomethacin administration and measured after 4 hrs by TBARS assay (reference value: 1.40 +/- 0.03 nmol/mg); assay type: functional; conditions: time 4.5 hrs
Mus musculus [6] = assay: Antiulcer activity in indomethacin-induced Balb/c mouse model of gastric ulcer assessed as inhibition of gastric mucosal apoptosis at 50 mg/kg, po pre-administered with compound for 30 mins followed by indomethacin administration and measured after 4 hrs by TUNEL assay; assay type: functional, organism-based; conditions: time 4.5 hrs
[7] = Toxicity in Balb/c mouse assessed as abdominal distension at 150 to 300 mg/kg, po administered via gavage for 25 days; assay type: organism-based; conditions: in vivo, 600 h, dose 150-300 mg/kg, time 25 day
[8] = Toxicity in Balb/c mouse assessed as fur loss at 150 to 300 mg/kg, po administered via gavage for 25 days; assay type: organism-based; conditions: in vivo, 600 h, dose 150-300 mg/kg, time 25 day
[9] = biological target: 72 kDa type IV collagenase (Homo sapiens) (UniProt P08253); assay: Inhibition of MMP-2 (unknown origin) upto 500 uM incubated for 3 hrs by SDS-PAGE analysis
72 kDa type IV collagenase (Homo sapiens), sequence (P08253 110-660 limits assumed): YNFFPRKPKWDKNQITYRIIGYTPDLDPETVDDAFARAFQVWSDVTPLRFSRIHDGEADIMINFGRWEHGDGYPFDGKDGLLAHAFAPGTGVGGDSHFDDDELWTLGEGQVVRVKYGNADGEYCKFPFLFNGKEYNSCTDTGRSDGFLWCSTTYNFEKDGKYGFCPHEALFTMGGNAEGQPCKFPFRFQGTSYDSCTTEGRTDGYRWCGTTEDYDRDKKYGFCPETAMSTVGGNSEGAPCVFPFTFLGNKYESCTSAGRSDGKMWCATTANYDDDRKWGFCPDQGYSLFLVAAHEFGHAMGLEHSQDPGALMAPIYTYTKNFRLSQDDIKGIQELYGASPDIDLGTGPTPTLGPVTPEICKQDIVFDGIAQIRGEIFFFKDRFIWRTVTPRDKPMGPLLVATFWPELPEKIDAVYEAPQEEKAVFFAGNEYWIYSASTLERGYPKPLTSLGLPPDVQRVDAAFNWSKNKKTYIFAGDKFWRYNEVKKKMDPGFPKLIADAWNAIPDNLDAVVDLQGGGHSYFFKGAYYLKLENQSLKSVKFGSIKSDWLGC

Mus musculus [10] = assay: as §1, with “inflammatory cell infiltration” for “mean ulcer index”, “hrs by H&E staining based analysis” for “hrs”, “147” for “52.5”, “5.2%)” for “1.4)”; assay type: functional; conditions: time 4.5 hrs
[11] = biological target: T1, Matrix metalloproteinase-9 (Homo sapiens, UniProt P14780); assay: Inhibition of human MMP-9 incubated for 3 hrs by SDS-PAGE based gelatin zymography analysis
T1 sequence (P14780 whole entry): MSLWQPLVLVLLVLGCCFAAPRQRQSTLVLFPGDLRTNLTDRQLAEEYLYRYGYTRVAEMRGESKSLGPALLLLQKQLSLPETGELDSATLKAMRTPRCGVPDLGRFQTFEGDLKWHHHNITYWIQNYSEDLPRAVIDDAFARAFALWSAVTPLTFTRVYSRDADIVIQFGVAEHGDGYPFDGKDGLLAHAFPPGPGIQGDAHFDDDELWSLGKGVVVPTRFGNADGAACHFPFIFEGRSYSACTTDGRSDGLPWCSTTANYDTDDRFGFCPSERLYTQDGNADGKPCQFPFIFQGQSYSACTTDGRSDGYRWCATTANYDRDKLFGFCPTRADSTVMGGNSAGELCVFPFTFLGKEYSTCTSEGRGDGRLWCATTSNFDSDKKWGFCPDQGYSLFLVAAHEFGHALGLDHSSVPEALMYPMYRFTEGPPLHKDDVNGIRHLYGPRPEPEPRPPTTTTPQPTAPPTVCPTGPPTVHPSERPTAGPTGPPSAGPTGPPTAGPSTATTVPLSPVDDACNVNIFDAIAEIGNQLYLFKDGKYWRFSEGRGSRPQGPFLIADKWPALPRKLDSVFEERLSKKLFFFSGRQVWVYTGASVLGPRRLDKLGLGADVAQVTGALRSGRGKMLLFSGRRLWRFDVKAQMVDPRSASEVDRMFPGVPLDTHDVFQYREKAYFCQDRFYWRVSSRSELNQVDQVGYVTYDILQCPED

[12] = biological target: T2, Prostaglandin G/H synthase 2 (Homo sapiens, UniProt P35354); assay: Inhibition of COX2 (unknown origin) preincubated with compound for 5 mins followed by substrate addition and measured after 5 mins by fluorescence spectrophotometer analysis
T2 sequence (P35354 whole entry): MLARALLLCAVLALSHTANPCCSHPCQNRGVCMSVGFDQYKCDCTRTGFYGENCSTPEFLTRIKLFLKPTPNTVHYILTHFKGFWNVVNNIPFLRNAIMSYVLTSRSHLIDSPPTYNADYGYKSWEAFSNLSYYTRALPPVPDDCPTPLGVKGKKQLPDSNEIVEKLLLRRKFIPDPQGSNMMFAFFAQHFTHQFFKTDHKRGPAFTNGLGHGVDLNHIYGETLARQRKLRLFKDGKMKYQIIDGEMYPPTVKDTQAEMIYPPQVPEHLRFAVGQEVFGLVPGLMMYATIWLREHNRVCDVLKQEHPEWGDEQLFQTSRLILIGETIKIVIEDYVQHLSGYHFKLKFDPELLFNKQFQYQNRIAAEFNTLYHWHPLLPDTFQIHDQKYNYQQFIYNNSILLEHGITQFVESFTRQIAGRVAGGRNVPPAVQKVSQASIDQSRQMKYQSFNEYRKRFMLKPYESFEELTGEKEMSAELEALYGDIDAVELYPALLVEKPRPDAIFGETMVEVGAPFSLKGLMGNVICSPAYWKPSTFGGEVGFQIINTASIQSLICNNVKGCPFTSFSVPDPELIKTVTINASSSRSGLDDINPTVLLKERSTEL

[13] = Toxicity in Balb/c mouse assessed as lethargy at 150 to 300 mg/kg, po administered via gavage for 25 days; assay type: organism-based; conditions: in vivo, 600 h, dose 150-300 mg/kg, time 25 day
Mus musculus [14] = assay: In vivo inhibition of MMP-9 expression in indomethacin-induced Balb/c mouse model of gastric ulcer at 50 mg/kg, po pre-administered with compound for 30 mins followed by indomethacin administration and measured after 4 hrs by PI staining based immunofluorescence analysis; assay type: functional, organism-based; conditions: time 4.5 hrs
[15] = Toxicity in Balb/c mouse assessed as effect on body weight at 150 to 300 mg/kg, po administered via gavage for 25 days; assay type: organism-based; conditions: in vivo, 600 h, dose 150-300 mg/kg, time 25 day
[16] = biological target: T1, Matrix metalloproteinase-9; assay: Inhibition of human MMP-9 at 500 uM incubated for 3 hrs by SDS-PAGE based gelatin zymography analysis
[17] = Toxicity in Balb/c mouse assessed as mortality at 150 to 300 mg/kg, po administered via gavage for 25 days; assay type: organism-based; conditions: in vivo, 600 h, dose 150-300 mg/kg, time 25 day
Mus musculus [18] = assay: Antiulcer activity in indomethacin-induced Balb/c mouse model of gastric ulcer assessed as intact epithelial layer in gastric tissue at 50 mg/kg, po pre-administered with compound for 30 mins followed by indomethacin administration and measured after 4 hrs by H&E staining based analysis; assay type: functional, organism-based; conditions: time 4.5 hrs
Mus musculus [19] = assay: (§2) Antiulcer activity in indomethacin-induced Balb/c mouse model of gastric ulcer assessed as reduction in mucosal injury at 50 mg/kg, po pre-administered with compound for 30 mins followed by indomethacin administration and measured after 4 hrs by H&E staining based analysis relative to control; assay type: functional; design: scale not given: the % may be the effect or the level left; conditions: time 4.5 hrs
Mus musculus [20] = assay: In vivo inhibition of MMP-9 activity in indomethacin-induced Balb/c mouse model of gastric ulcer at 50 mg/kg, po pre-administered with compound for 30 mins followed by indomethacin administration and measured after 4 hrs by SDS-PAGE based gelatin zymography method; assay type: functional, organism-based; conditions: time 4.5 hrs
Mus musculus [21] = assay: Antiulcer activity in indomethacin-induced Balb/c mouse model of gastric ulcer assessed as cell injury in mucosa at 50 mg/kg, po pre-administered with compound for 30 mins followed by indomethacin administration and measured after 4 hrs by H&E staining based analysis (reference value: 70+/- 6.5 %); assay type: functional; conditions: time 4.5 hrs
[22] = Toxicity in Balb/c mouse assessed as hunching at 150 to 300 mg/kg, po administered via gavage for 25 days; assay type: organism-based; conditions: in vivo, 600 h, dose 150-300 mg/kg, time 25 day
Mus musculus [23] = assay: Antiulcer activity in indomethacin-induced Balb/c mouse model of gastric ulcer assessed as reduction in gastric tissue injury at 50 mg/kg, po pre-administered with compound for 30 mins followed by indomethacin administration and measured after 4 hrs by H&E staining based analysis; assay type: functional, organism-based; conditions: time 4.5 hrs
[24] = AUC in Sprague-Dawley rat at 250 mg/kg, po administered via gavage by HPLC analysis; assay type: ADME, organism-based; design: dose 250 mg/kg, route po; conditions: in vivo
[25] = Tmax in Sprague-Dawley rat at 250 mg/kg, po administered via gavage by HPLC analysis; assay type: ADME, organism-based; conditions: in vivo
Mus musculus [26] = assay: as §2, with “prevention of inflammatory cell infiltration” for “reduction in mucosal injury”; assay type: functional; conditions: time 4.5 hrs

For `COc1ccc2[nH]c([S+]([O-])Cc3ncc(C)c(OC)c3C)nc2c1` (stereo not given) [OMEPRAZOLE], which UI (Mus musculus [1]) is on record?
Its UI is 0.5.

What about the inhibition in vivo at 12 mg/kg (Mus musculus [2]) of the same compound?
Its inhibition in vivo at 12 mg/kg is 100%.

With `COc1ccc2[nH]cc(-c3cc(-c4ccccc4)oc3-c3ccccc3)c2c1OC` as the compound, how does the inhibition in vivo at 50 mg/kg (Mus musculus [3]) read?
The inhibition in vivo at 50 mg/kg was 74%.

What about the UI (Mus musculus [4]) of the same compound?
Its UI is 13.5.

What does the source list for `COc1ccc2[nH]cc(-c3cc(-c4ccccc4)oc3-c3ccccc3)c2c1`?
inhibition in vivo at 50 mg/kg (Mus musculus [3]): 83%; UI (Mus musculus [4]): 9

For `c1ccc(-c2cc(-c3c(-c4ccccc4)[nH]c4ccccc34)c(-c3ccccc3)o2)cc1`, which inhibition in vivo at 50 mg/kg (Mus musculus [3]) is on record?
Its inhibition in vivo at 50 mg/kg is 65%.

What about the UI (Mus musculus [4]) of the same compound?
Its UI is 18.25.

Which inhibition in vivo at 50 mg/kg (Mus musculus [3]) does the source give for `Oc1ccc2[nH]cc(-c3cc(-c4ccccc4)oc3-c3ccccc3)c2c1` here?
Its inhibition in vivo at 50 mg/kg is 78%.

And the UI (Mus musculus [4])?
Its UI is 11.5.

Which Activity (Mus musculus [5]) does the source give for `COc1cccc2[nH]cc(-c3cc(-c4ccccc4)oc3-c3ccccc3)c12` here?
Its Activity is 0.47 nmol/mg.

What about the Activity (Mus musculus [6]) of the same compound?
Its Activity is “Active”.

And the Activity [7]?
Its Activity is “Non-Toxic”.

And the Activity [8]?
Its Activity is “Non-Toxic”.

What about the inhibition [9] of the same compound?
Its inhibition is “inactive”.

And the Activity (Mus musculus [10])?
Its Activity is 92%.

What about the IC50 [11] of the same compound?
The IC50 was about 50 µM.

And the IC50 [12]?
Its IC50 is over 100 µM.

What about the Activity [13] of the same compound?
Its Activity is “Non-Toxic”.

And the inhibition in vivo at 50 mg/kg (Mus musculus [3])?
The inhibition in vivo at 50 mg/kg was 95%.

And the inhibition (Mus musculus [14])?
The inhibition was “Active”.

What about the Activity [15] of the same compound?
The Activity was “Non-Toxic”.

And the inhibition [16]?
Its inhibition is “Active”.

What about the Activity [17] of the same compound?
The Activity was “Non-Toxic”.

What about the Activity (Mus musculus [18]) of the same compound?
The Activity was “Active”.

And the Activity (Mus musculus [19])?
Its Activity is about 90%.

What about the inhibition (Mus musculus [20]) of the same compound?
The inhibition was “Active”.

What about the Activity (Mus musculus [21]) of the same compound?
The Activity was 12%.

What about the Activity [22] of the same compound?
The Activity was “Non-Toxic”.

And the Activity (Mus musculus [23])?
The Activity was “Active”.

And the AUC [24]?
Its AUC is 1270 µg·h/mL.

And the Tmax [25]?
The Tmax was 6 h.

What about the Activity (Mus musculus [26]) of the same compound?
The Activity was 100%.

What about the UI (Mus musculus [4]) of the same compound?
Its UI is 2.5.

For `COc1cccc2c1c(-c1cc(-c3ccccc3)oc1-c1ccccc1)cn2C`, which inhibition in vivo at 50 mg/kg (Mus musculus [3]) is on record?
The inhibition in vivo at 50 mg/kg was 56%.

And the UI (Mus musculus [4])?
The UI was 23.25.

Which inhibition in vivo at 50 mg/kg (Mus musculus [3]) does the source give for `Oc1ccccc1-c1[nH]c2ccccc2c1-c1cc(-c2ccccc2)oc1-c1ccccc1` here?
Its inhibition in vivo at 50 mg/kg is 72%.

What about the UI (Mus musculus [4]) of the same compound?
The UI was 14.5.

Which results are given for `c1ccc(-c2cc(-c3c[nH]c4ccccc34)c(-c3ccccc3)o2)cc1`?
inhibition in vivo at 50 mg/kg (Mus musculus [3]): 62%; UI (Mus musculus [4]): 20.2
